Laboratory results taken from ChEMBL document CHEMBL4616637, “Proximicins F and G and Diproximicin A: Aminofurans from the Marine-Derived Verrucosispora sp. SCSIO 40062 by Overexpression of PPtase Genes” (J Nat Prod, 2020).
Values after ≈ are worked out from the molar mass of the structure shown. Active and inactive are the calls of the source. The calls are words filed in the database; no cut-off is given here.

How the values were obtained:
[1] = target: T1, Tyrosinase (Homo sapiens) (UniProt P14679); assay: Inhibition of tyrosinase (unknown origin) at 20 uM using L-DOPA as substrate
T1 sequence (whole entry): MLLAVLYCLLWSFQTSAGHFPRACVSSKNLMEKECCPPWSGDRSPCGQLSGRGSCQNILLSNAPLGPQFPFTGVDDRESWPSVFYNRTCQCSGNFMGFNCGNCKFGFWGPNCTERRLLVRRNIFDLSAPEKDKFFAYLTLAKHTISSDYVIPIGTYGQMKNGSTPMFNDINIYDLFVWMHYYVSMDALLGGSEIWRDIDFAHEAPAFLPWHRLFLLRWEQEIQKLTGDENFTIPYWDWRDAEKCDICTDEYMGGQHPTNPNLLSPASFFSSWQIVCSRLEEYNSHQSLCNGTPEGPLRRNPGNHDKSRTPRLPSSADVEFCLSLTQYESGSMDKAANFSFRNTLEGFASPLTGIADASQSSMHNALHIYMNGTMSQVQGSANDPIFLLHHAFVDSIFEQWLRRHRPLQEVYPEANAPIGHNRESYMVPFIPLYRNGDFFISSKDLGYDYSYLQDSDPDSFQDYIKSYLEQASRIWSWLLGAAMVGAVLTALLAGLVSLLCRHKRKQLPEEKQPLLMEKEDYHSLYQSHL

[2] = tested on: Micrococcus luteus; assay: Antibacterial activity against Micrococcus luteus SCSIO ML01 by CLSI based susceptibility test method; assay type: functional
[3] = tested on: SF-268; assay: Cytotoxicity against human SF268 cells assessed as reduction in cell viability after 48 hrs by SRB assay; assay type: functional, cell-based; details: SF-268, 48 h
[4] = organism: Homo sapiens; assay: Inhibition of alpha-glucosidase (unknown origin) at 20 uM using pNPG as substrate preincubated for 15 mins followed by substrate addition and measured after 15 mins
[5] = tested on: MCF7; assay: Cytotoxicity against human MCF7 cells assessed as reduction in cell viability after 48 hrs by SRB assay; assay type: functional, cell-based; details: MCF7, 48 h
[6] = tested on: HepG2; assay: Cytotoxicity against human HepG2 cells assessed as reduction in cell viability after 48 hrs by SRB assay; assay type: functional, cell-based; details: HepG2, 48 h
[7] = tested on: A549; assay: Cytotoxicity against human A549 cells assessed as reduction in cell viability after 48 hrs by SRB assay; assay type: functional, cell-based; details: A549, 48 h
[8] = tested on: Bacillus subtilis; assay: Antibacterial activity against Bacillus subtilis 1064 by CLSI based susceptibility test method; assay type: functional
[9] = target: Acetylcholinesterase (Electrophorus electricus) (UniProt O42275); assay: Inhibition of electric eel AChE at 20 uM using acetylthiocholine iodide as substrate incubated for 6 mins by Ellman's method
[10] = tested on: Staphylococcus aureus; assay: Antibacterial activity against Staphylococcus aureus ATCC 29213 by CLSI based susceptibility test method; assay type: functional
[11] = tested on: Staphylococcus aureus; assay: Antibacterial activity against methicillin-resistant Staphylococcus aureus shhsA1 by CLSI based susceptibility test method; assay type: functional

Chain of Acetylcholinesterase (Electrophorus electricus) (O42275 24-633 limits assumed): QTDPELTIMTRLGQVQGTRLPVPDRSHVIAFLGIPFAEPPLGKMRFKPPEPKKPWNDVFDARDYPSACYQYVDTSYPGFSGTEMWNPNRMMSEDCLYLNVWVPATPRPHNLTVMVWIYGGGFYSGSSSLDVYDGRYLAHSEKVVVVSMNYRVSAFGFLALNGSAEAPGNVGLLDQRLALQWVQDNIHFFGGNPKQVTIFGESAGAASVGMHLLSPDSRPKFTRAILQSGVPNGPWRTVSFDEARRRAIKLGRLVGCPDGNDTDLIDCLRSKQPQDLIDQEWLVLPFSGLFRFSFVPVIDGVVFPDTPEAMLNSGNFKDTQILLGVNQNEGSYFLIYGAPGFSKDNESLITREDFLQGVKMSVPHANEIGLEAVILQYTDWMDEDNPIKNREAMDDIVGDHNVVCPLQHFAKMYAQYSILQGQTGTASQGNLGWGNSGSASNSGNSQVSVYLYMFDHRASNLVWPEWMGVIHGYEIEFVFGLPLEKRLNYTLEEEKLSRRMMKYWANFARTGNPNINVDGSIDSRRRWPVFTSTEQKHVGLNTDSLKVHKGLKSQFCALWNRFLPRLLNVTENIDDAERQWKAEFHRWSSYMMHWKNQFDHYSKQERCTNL

| Compound | inhibition [1] | MIC [2] [µg/mL] | IC50 [3] [µM] | inhibition [4] | IC50 [5] [µM] | IC50 [6] [µM] | IC50 [7] [µM] | MIC [8] [µg/mL] | inhibition [9] | MIC [10] [µg/mL] | MIC [11] [µg/mL] |
| --- | --- | --- | --- | --- | --- | --- | --- | --- | --- | --- | --- |
| CNC(=O)c1cc(NC(=O)c2cc(NC(=O)OC)co2)co1 | inactive | > 64 | > 10 | inactive | > 10 | > 10 | > 10 | > 64 | inactive | > 64 | > 64 |
| COC(=O)Nc1coc(C(=O)Nc2coc(C(=O)NCCCCCNC(=O)c3cc(NC(=O)c4cc(NC(=O)OC)co4)co3)c2)c1 | inactive | > 64 | > 10 | inactive | > 10 | > 10 | > 10 | > 64 | inactive | > 64 | > 64 |
| COC(=O)Nc1coc(C(=O)Nc2coc(C(=O)NCCc3ccccc3)c2)c1 | inactive | > 64 | – | inactive | – | – | – | 32 (≈ 80.5 µM) | inactive | > 64 | > 64 |
| CC1(C)S[C@@H]2[C@H](NC(=O)[C@H](N)c3ccccc3)C(=O)N2[C@H]1C(=O)O [AMPICILLIN] | – | 0.5 (≈ 1.43 µM) | – | – | – | – | – | 0.25 (≈ 0.715 µM) | – | 0.25 (≈ 0.715 µM) | > 64 |
| C[S+](C)[O-] [DIMETHYL SULFOXIDE] | – | > 64 | – | – | – | – | – | > 64 | – | > 64 | > 64 |
| COC(=O)Nc1coc(C(=O)Nc2coc(C(=O)NCCc3ccc(O)cc3)c2)c1 [PROXIMICIN B] | inactive | > 64 | > 10 | inactive | > 10 | > 10 | > 10 | 8 (≈ 19.4 µM) | inactive | 16 (≈ 38.7 µM) | 16 (≈ 38.7 µM) |
| COC(=O)Nc1coc(C(=O)Nc2coc(C(=O)NCCc3c[nH]c4ccccc34)c2)c1 [PROXIMICIN C] | inactive | > 64 | > 10 | inactive | > 10 | > 10 | > 10 | > 64 | inactive | > 64 | > 64 |
| COc1cc(Cc2cnc(N)nc2N)cc(OC)c1OC [TRIMETHOPRIM] | – | 2 (≈ 6.89 µM) | – | – | – | – | – | 0.25 (≈ 0.861 µM) | – | 2 (≈ 6.89 µM) | > 64 |
| CN[C@H](CC(C)C)C(=O)N[C@H]1C(=O)N[C@@H](CC(N)=O)C(=O)N[C@H]2C(=O)N[C@H]3C(=O)N[C@H](C(=O)N[C@H](C(=O)O)c4cc(O)cc(O)c4-c4cc3ccc4O)[C@H](O)c3ccc(c(Cl)c3)Oc3cc2cc(c3O[C@@H]2O[C@H](CO)[C@@H](O)[C@H](O)[C@H]2O[C@H]2C[C@](C)(N)[C@H](O)[C@H](C)O2)Oc2ccc(cc2Cl)[C@H]1O [VANCOMYCIN] | – | 0.25 (≈ 0.173 µM) | – | – | – | – | – | 0.5 (≈ 0.345 µM) | – | – | – |
